Results as given in patent publication EP4741383A1, “COMPOUND AND USE THEREOF AS ANTI-CANCER DRUG” (Tyligand Bioscience (Shanghai) Limited, priority 2023, dated 2025).

tested on: MeWo; assay: CellTiter-Glo cell proliferation inhibition, MeWo; type: cell-based, human; conditions: Homo sapiens, MeWo, 72 h, MeWo cells, CellTiter-Glo
Experimental: (§1) In this study, the CellTiter-Glo® Luminescent Cell Viability Assay kit from Promega was used to evaluate the inhibitory effects of the disclosed compounds on the proliferation of cell lines KYSE520 (a human esophageal squamous cell carcinoma cell line dependent on SHP2 for growth), MeWo (a human malignant melanoma cell line), and MV4-11 (an RTK-mutant human acute monocytic leukemia cell line).
Using essentially the same experimental materials, MeWo cells (ATCC, catalog #HTB-65) were treated similarly: when thawing the cells, the cryovial was rapidly shaken in a 37 °C water bath to thaw the cells within 1 minute. The thawed cell suspension was mixed with MEM/EBSS culture medium containing 10% FBS (HyClone, catalog #SH30024.01), centrifuged at 1000 rpm for 5 minutes, and the supernatant was discarded. The cell pellet was resuspended in 5 mL of complete culture medium (MEM/EBSS medium containing 10% FBS), placed in a cell culture flask with 25 cm^2 of bottom area, and cultured in a cell culture incubator at 37 °C, 95% humidity, and 5% CO2. Cell passaging was performed when the cell confluence reached approximately 80%. During cell passaging, the old culture medium was discarded, the cells were washed once with DPBS, and 1 mL of trypsin was added to digest the cells. When the cells dispersed into single cells and detached from the bottom of the cell culture flask, 3 mL of new complete culture medium was added to stop the digestion. After thoroughly mixing the cell suspension, 1/5 of the cell suspension was retained, 5 mL of new complete culture medium was added, and after thorough mixing, the cells were placed in a cell culture flask for further culture. Cell plating was performed when the cell confluence again reached approximately 80%. During cell plating, following the cell passaging method, 1/5 of the cell suspension was retained for further culture, and the remaining 4/5 of the cell suspension was placed in a 15 mL centrifuge tube. Cell viability was determined using the trypan blue exclusion method to ensure that cell viability was above 90%. A cell suspension with a density of 2.22 × 10^4 cells/mL was prepared using MEM/EBSS culture medium containing 5% FBS. 90 µL of the cell suspension was added to a 96-well cell culture plate, resulting in a cell density of 2000 viable cells/well in the cell culture plate. A control group without cells and without compounds, containing only complete culture medium (i.e., culture medium control), and a control group without compounds but containing cells (i.e., cell control) were set up. The cell plate was cultured overnight in the cell culture incubator. First, a 10 mM stock solution of the compound (Example compound and positive control compound 11a-1) in DMSO was serially diluted with DMSO at a 3-fold dilution, down to the 9th concentration. A 10th concentration containing only DMSO (without the compound) was also prepared as a control. Then, the DMSO solutions containing different concentrations of the compound were diluted 100-fold with complete culture medium, resulting in a 1% DMSO concentration in each solution. Finally, 10 µL of each solution was added to the corresponding wells of the cell culture plate, resulting in a starting compound concentration of 10 µM, with a 3-fold dilution between adjacent concentrations, and a 0.1% DMSO concentration in the cell culture plate. The cell plates were then incubated in a cell culture incubator for 72 hours.
(§2) For endpoint detection, CellTiter-Glo reagent (Promega, catalog number #G7573, CellTiter-Glo® Luminescent Cell Viability Assay Kit) was melt and each cell plate was moved to room temperature for equilibration for 30 minutes. 75 µL (KYSE520 cells) or 50 µL (MeWo cells and MV 4-11 cells) of CellTiter-Glo was added to each well of the corresponding cell plate. The plates were shaken on a track-mounted shaker for 2 minutes to fully lyse the cells. The cell plates were kept at room temperature for 8 minutes to stabilize the luminescence signal. […]

| SMILES | IC50 [µM] |
| --- | --- |
| O=C(Nc1ccc(-c2csc(CO)c2)cc1)C(=O)Nc1ccc(-c2cc3cc(F)c(-c4nnn[nH]4)cc3n2C2CCC2)cc1 [Example 1] | 0.032 |
| CC1(n2c(-c3ccc(NC(=O)C(=O)Nc4ccc(-c5cnn(C6COC6)c5)cc4)cc3)cc3cc(F)c(-c4nnn[nH]4)cc32)CC1 [Example 6] | 0.113 |
| CC1(n2c(-c3ccc(NC(=O)C(=O)Nc4ccc(-c5cnn(C6CCOCC6)c5)cc4)cc3)cc3cc(F)c(-c4nnn[nH]4)cc32)CC1 [Example 7] | 0.111 |
| Cn1c(-c2cccc(NC(=O)C(=O)Nc3ccc(-c4ccsc4)cc3)c2)c(I)c2cc(C(=O)O)c(O)cc21 [Example 11a-1, reference compound] | 3.1 |
| O=C(Nc1ccc(-c2cc3cc(F)c(-c4nnn[nH]4)cc3n2C2CCC2)cc1)C(=O)Nc1ccc(N2CCC(CO)C2)cc1 (stereo not shown) [Example 12] | 0.082 |
| O=C(Nc1ccc(-c2cc3cc(F)c(-c4nnn[nH]4)cc3n2C2CC2)cc1)C(=O)Nc1ccc(N2CCC3(CCOC3)CC2)cc1 [Example 69] | 0.093 |
| O=C(Nc1ccc(-c2ccsc2)cc1)C(=O)Nc1ccc(-c2cc3ccc(-c4nnn[nH]4)cc3n2C2CCC2)cc1 [Example 122] | 0.409 |
| Cn1cc(-c2ccc(NC(=O)C(=O)Nc3ccc(-c4cc5cc(F)c(-c6noc(=O)[nH]6)cc5n4C4CCC4)cc3)cc2)cn1 [Example 123] | 0.118 |
| Cn1cc(-c2ccc(NC(=O)C(=O)Nc3ccc(-c4cc5cc(F)c(-c6nnc(C(F)(F)F)[nH]6)cc5n4C4CCC4)cc3)cc2)cn1 [Example 124] | 1.55 |
| O=C(Nc1ccc(-c2ccsc2)cc1)C(=O)Nc1ccc(-c2oc3cc(F)c(-c4nnn[nH]4)cc3c2C2CCC2)cc1 [Example 130] | 0.162 |
| O=C(Nc1ccc(-c2ccsc2)cc1)C(=O)Nc1ccc(-c2cc3cc(F)c(-c4nnn[nH]4)nc3n2C2CCC2)cc1 [Example 132] | 0.291 |
| O=C(Nc1ccc(-c2ccsc2)cc1)C(=O)Nc1ccc(-c2sc3cc(F)c(-c4nnn[nH]4)cc3c2C2CCC2)cc1 [Example 133] | 0.686 |

same assay, conditions: Homo sapiens; MeWo cells, 72 hours, CellTiter-Glo

| SMILES | IC50 [µM] |
| --- | --- |
| O=C(Nc1ccc(-c2oc3cc(F)c(-c4nnn[nH]4)cc3c2C2CCC2)cc1)C(=O)Nc1ccc(N2CCC3(CCOC3)CC2)cc1 [Example 125] | 0.764 |
| O=C(Nc1ccc(-c2ccsc2)cc1)C(=O)Nc1ccc(-c2cc3ccc(-c4nnn[nH]4)nc3n2C2CCC2)cc1 [Example 129] | 0.176 |
| O=C(Nc1ccc(-c2ccsc2)cc1)C(=O)Nc1ccc(-c2cc3cc(F)c(-c4nnn[nH]4)c(F)c3n2C2CCC2)cc1 [Example 134] | 0.27 |

tested on: MV4-11; assay: CellTiter-Glo cell proliferation inhibition, MV4-11; type: cell-based, human; conditions: Homo sapiens; MV4-11 cells, 72 hours, CellTiter-Glo; read-out: IC50 (µM) M V4-11
Source text: as §1
Using essentially the same experimental materials, MV4-11 cells (Nanjing Cobio Biotechnology Co., Ltd., Catalog #CBP60522) were treated similarly: when thawing the cells, the cryovial was rapidly shaken in a 37 °C water bath to thaw within 1 minute. The thawed cell suspension was mixed with IMDM culture medium containing 10% FBS (HyClone, Catalog #SH30228.01), centrifuged at 1000 rpm for 7 minutes, and the supernatant was discarded. The cell pellet was resuspended in 5 mL of complete culture medium (IMDM medium containing 10% FBS) placed in a cell culture flask with 25 cm^2 of bottom area, and cultured in a cell culture incubator at 37 °C, 95% humidity, and 5% CO2. Cell passaging was performed when the cell density reached approximately 10^6 cells/mL. During cell passaging, the old cell suspension was thoroughly mixed, 1/5 of the cell suspension was retained, and 4 mL of new complete culture medium was added. After thorough mixing, the cells were placed back in the cell culture incubator for further culture. Cell plating was performed when the cell density again reached approximately 10^6 cells/mL. During cell plating, following the cell passage method, 1/5 of the cell suspension was retained for continued culture, and the remaining 4/5 of the cell suspension was placed in a 15 mL centrifuge tube. Cell viability was determined using the trypan blue exclusion method to ensure that cell viability was above 90%. A cell suspension with a density of 1.11 × 10^5 viable cells/mL was prepared using complete culture medium. 90 µL of the cell suspension was added to a 96-well cell culture plate, resulting in a cell density of 10000 viable cells/well. A control group without cells and without compounds, containing only complete culture medium (i.e., culture medium control) and a control group without compounds but containing cells (i.e., cell control) were set up. The cell plate was incubated overnight in the cell culture incubator. First, a 10 mM stock solution of the compound (Example compound and positive control compound 11a-1) in DMSO was serially diluted with DMSO at a 3-fold dilution, down to the 9th concentrations. A 10th concentration containing only DMSO (without the compound) was also prepared as a control. Then, the DMSO solutions containing different concentrations of the compound were diluted 100-fold with complete culture medium, resulting in a DMSO concentration of 1% in each solution. Finally, 10 µL of each solution was added to the corresponding wells of a cell culture plate, resulting in an initial compound concentration of 10 µM, with a 3-fold dilution between adjacent concentrations, and a DMSO concentration of 0.1% in the cell culture plate. The cell plate was then incubated in a cell culture incubator for 72 hours.
as §2, with “signal. A multi-mode microplate reader (PerkinEImer, Envision 2105 Multimode plate Read) was used to full-wavelength scan the luminescence value of each well.” for “signal.”

| SMILES | IC50 [µM] |
| --- | --- |
| CC1(n2c(-c3ccc(NC(=O)C(=O)Nc4ccc(-c5cnn(C6COC6)c5)cc4)cc3)cc3cc(F)c(-c4nnn[nH]4)cc32)CC1 [Example 6] | 0.358 |
| CC1(n2c(-c3ccc(NC(=O)C(=O)Nc4ccc(-c5cnn(C6CCOCC6)c5)cc4)cc3)cc3cc(F)c(-c4nnn[nH]4)cc32)CC1 [Example 7] | 0.254 |
| Cn1c(-c2cccc(NC(=O)C(=O)Nc3ccc(-c4ccsc4)cc3)c2)c(I)c2cc(C(=O)O)c(O)cc21 [Example 11a-1, reference compound] | 5.13 |
| CC1(O)CC2(CCN(c3ccc(NC(=O)C(=O)Nc4ccc(-c5cc6cc(F)c(-c7nnn[nH]7)cc6n5C5(C)CCC5)cc4)cc3)CC2)C1 [Example 95] | 0.168 |
| CC1(n2c(-c3ccc(NC(=O)C(=O)Nc4ccc(N5CCC6(CCC(O)C6)CC5)cc4)cc3)cc3cc(F)c(-c4nnn[nH]4)cc32)CCC1 (stereo not shown) [Example 101] | 0.329 |
| CC1(n2c(-c3ccc(NC(=O)C(=O)Nc4ccc(N5CCC6(CCC(O)CC6)CC5)cc4)cc3)cc3cc(F)c(-c4nnn[nH]4)cc32)CCC1 [Example 109] | 0.243 |
| CC1(O)CCC2(CCN(c3ccc(NC(=O)C(=O)Nc4ccc(-c5cc6cc(F)c(-c7nnn[nH]7)cc6n5C5(C)CCC5)cc4)cc3)CC2)CC1 [Example 111] | 0.122 |
| CC1(O)CC2CN(c3ccc(NC(=O)C(=O)Nc4ccc(-c5cc6cc(F)c(-c7nnn[nH]7)cc6n5C5(C)CCC5)cc4)cc3)CC2C1 (stereo not shown) [Example 118] | 0.131 |

The next lines start with the values.

| IC50 [µM] | SMILES |
| --- | --- |
| 0.097 | O=C(Nc1ccc(-c2csc(CO)c2)cc1)C(=O)Nc1ccc(-c2cc3cc(F)c(-c4nnn[nH]4)cc3n2C2CCC2)cc1 [Example 1] |
| 0.216 | N#CCc1cc(-c2ccc(NC(=O)C(=O)Nc3ccc(-c4cc5cc(F)c(-c6nnn[nH]6)cc5n4C4CCC4)cc3)cc2)cs1 [Example 2] |
| 0.262 | O=C(Nc1ccc(-c2cc3cc(F)c(-c4nnn[nH]4)cc3n2C2CCC2)cc1)C(=O)Nc1ccc(N2CCC(CO)C2)cc1 (stereo not shown) [Example 12] |
| 0.155 | O=C(Nc1ccc(-c2cc3cc(F)c(-c4nnn[nH]4)cc3n2C2CCC2)cc1)C(=O)Nc1ccc(N2CCC(CCO)C2)cc1 (stereo not shown) [Example 14] |
| 0.137 | CC1(CO)CCN(c2ccc(NC(=O)C(=O)Nc3ccc(-c4cc5cc(F)c(-c6nnn[nH]6)cc5n4C4CCC4)cc3)cc2)C1 (stereo not shown) [Example 16] |
| 0.129 | CC1(n2c(-c3ccc(NC(=O)C(=O)Nc4ccc(N5CCC(CCO)CC5)cc4)cc3)cc3cc(F)c(-c4nnn[nH]4)cc32)CCC1 [Example 26] |
| 0.13 | CC(O)C1CCN(c2ccc(NC(=O)C(=O)Nc3ccc(-c4cc5cc(F)c(-c6nnn[nH]6)cc5n4C4CCC4)cc3)cc2)CC1 (stereo not shown) [Example 29] |
| 0.177 | O=C(Nc1ccc(-c2cc3cc(F)c(-c4nnn[nH]4)cc3n2C2CCC2)cc1)C(=O)Nc1ccc(N2CC3(CCCOC3)C2)cc1 [Example 55] |
| 0.213 | O=C(Nc1ccc(-c2cc3cc(F)c(-c4nnn[nH]4)cc3n2C2CCC2)cc1)C(=O)Nc1ccc(N2CCC3(COC3)C2)cc1 [Example 59] |
| 0.202 | O=C(Nc1ccc(-c2cc3cc(F)c(-c4nnn[nH]4)cc3n2C2CCC2)cc1)C(=O)Nc1ccc(N2CCC3(CCCOC3)C2)cc1 (stereo not shown) [Example 62] |
| 0.129 | O=C(Nc1ccc(-c2cc3cc(F)c(-c4nnn[nH]4)cc3n2C2CCC2)cc1)C(=O)Nc1ccc(N2CCC3(CCCOC3)CC2)cc1 [Example 74] |
| 0.133 | CC1(O)CCC2(CC1)CN(c1ccc(NC(=O)C(=O)Nc3ccc(-c4cc5cc(F)c(-c6nnn[nH]6)cc5n4C4CCC4)cc3)cc1)C2 [Example 83] |
| 0.124 | COC1CC(n2c(-c3ccc(NC(=O)C(=O)Nc4ccc(N5CCC6(CCC(O)C6)CC5)cc4)cc3)cc3cc(F)c(-c4nnn[nH]4)cc32)C1 (stereo not shown) [Example 103] |
| 0.127 | CC1(O)CC2CN(c3ccc(NC(=O)C(=O)Nc4ccc(-c5cc6cc(F)c(-c7nnn[nH]7)cc6n5C5CCC5)cc4)cc3)CC2C1 (stereo not shown) [Example 117] |
